EP4559908A1, “HETEROARYL DERIVATIVE COMPOUND AND USE THEREOF” (S2CBio Inc., priority 2022, dated 2024)

Molecular target: T1, human ANO6 (variant 5) (Homo sapiens, UniProt Q4KMQ2)
T1 construct: expressed in transfected cells; host or cells: Fischer rat thyroid (FRT) cells
T1 sequence (Q4KMQ2 1-931 isoform Q4KMQ2-2): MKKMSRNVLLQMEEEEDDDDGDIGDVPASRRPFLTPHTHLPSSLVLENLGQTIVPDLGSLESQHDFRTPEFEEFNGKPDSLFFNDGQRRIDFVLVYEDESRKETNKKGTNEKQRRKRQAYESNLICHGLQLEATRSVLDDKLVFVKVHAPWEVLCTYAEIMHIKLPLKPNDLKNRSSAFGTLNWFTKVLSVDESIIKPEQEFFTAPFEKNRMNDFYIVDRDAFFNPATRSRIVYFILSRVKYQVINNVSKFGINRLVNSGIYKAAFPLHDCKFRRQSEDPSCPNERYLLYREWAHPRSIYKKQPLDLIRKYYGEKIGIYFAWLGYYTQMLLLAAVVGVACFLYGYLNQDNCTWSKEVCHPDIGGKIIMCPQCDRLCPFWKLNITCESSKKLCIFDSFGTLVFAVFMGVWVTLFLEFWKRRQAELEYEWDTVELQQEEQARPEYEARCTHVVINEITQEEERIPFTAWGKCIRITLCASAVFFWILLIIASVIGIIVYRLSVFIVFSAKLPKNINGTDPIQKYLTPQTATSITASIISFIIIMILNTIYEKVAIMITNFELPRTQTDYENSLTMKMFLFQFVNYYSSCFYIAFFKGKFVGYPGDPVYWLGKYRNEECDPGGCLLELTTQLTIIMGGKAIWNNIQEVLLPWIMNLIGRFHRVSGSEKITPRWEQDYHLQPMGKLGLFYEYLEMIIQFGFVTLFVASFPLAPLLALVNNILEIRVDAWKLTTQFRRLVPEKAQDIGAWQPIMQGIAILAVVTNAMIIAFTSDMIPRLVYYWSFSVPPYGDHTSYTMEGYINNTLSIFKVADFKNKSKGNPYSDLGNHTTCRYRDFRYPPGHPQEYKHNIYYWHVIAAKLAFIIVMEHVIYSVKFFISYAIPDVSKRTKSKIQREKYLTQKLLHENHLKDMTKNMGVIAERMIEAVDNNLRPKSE
Assay: Lact C2 assay (measuring phosphatidylserine externalization scramblase function)
Assay type: cell-based
Details: FRT cells expressing human ANO6 (variant 5), ionomycin 10 µM, Lact-C2-GFP fluorescence, average of three tests; for inhibition at 1 µM / inhibition at 0.05 µM / inhibition at 0.1 µM: FRT; for inhibition at 1 µM: compound 1 µM, read-out: % Inhibition 1 µM; for inhibition at 0.05 µM: read-out: % Inhibition 50 nM
Protocol: Ionomycin (Alomonelab, cat. # I-700), DAPI (Sigma- Aldrich, cat. # D8417), paraformaldehyde (Biosesang, cat. #P2031), Lionheart FX automated fluorescence microscope (BioTek), Gen5™ software program (BioTek), and Image J analysis software program.
After the incubation, the cells were treated with compounds dissolved in DMSO to 1% v/v in each well at each concentration (50 nM, 100 nM, and 1 µM) and reacted for 10 minutes. Thereafter, each well was treated with ionomycin to a final concentration of 10 µM, allowed to react for 10 minutes, and then washed with 200 µL PBS. After washing, each well was treated with 50 µL of Lactadherin-C2 (Lact-C2)-GFP mixed in DMEM medium to a final concentration of 500 nM to stain phosphatidylserine, and cultured at 37°C for 10 minutes. After completion of the reaction, the cells were washed with 200 µL PBS, and fixed with 4% paraformaldehyde for 5 minutes at room temperature. For morphological analysis, DAPI solution was added, and the cells were incubated for 15 minutes, followed by washing with PBS. The fluorescence intensity of Lact-C2-GFP bound to phosphatidylserine on the cell surface was measured using an automated fluorescence microscope. For quantitative analysis of the fluorescence intensity of Lact-C2-GFP, BioTek Gen5™ software and Image J analysis software programs were used.
Phosphatidylserine externalization inhibitory activity (%) by the compound was calculated through the following analysis method. Specifically, the background fluorescence value was subtracted from the measured Lact-C2-GFP fluorescence value, and the fluorescence value of the ionomycin non-treatment group and the ionomycin-treatment group in the same row where each test group was located in a 96-well microplate were calculated. In order to calculate the inhibitory activity (%) by the compound, the relative inhibitory activity was calculated by setting the compound and ionomycin non-treatment group to 100% inhibitory activity and the ionomycin alone treatment group to 0% inhibitory activity.

| Structure (SMILES) | % Inhibition 50 nM (compound 50 nM) | % Inhibition 100 nM (compound 100 nM) | inhibition at 1 µM [%] | inhibition at 0.05 µM (compound 50 nM) [%] | inhibition at 0.1 µM (compound 100 nM) [%] |
| --- | --- | --- | --- | --- | --- |
| Fc1ccc2nc(-c3cccc(Nc4ncc(-c5cccnn5)cn4)c3)[nH]c2c1 [Example 55, N-(3-(6-fluoro-1H-benzo[d]imidazol-2-yl)phenyl)-5-(pyridazin-3-yl)pyrimidin-2-amine] | A (> 60% inhibition) | A (> 60% inhibition) | – | – | – |
| Fc1ccnc(-c2ccc(Nc3cccc(-c4nc5ccc(C(F)(F)F)cc5[nH]4)c3)cc2)c1 [Example 305, N-(4-(4-fluoropyridin-2-yl)phenyl)-3-(6-(trifluoromethyl)-1H-benzo[d]imidazol-2-yl)aniline] | – | – | > 60 | 30 to 60 | – |
| FC(F)(F)Oc1cc2nc(-c3cccc(Nc4ncc(-c5cccnn5)cn4)c3)[nH]c2cc1Cl [Example 120, N-[3-[6-chloro-5-(trifluoromethoxy)-1H-benzo[d]imidazol-2-yl]phenyl]-5-pyridazin-3-yl-pyrimidin-2-amine] | – | – | > 60 | > 60 | – |
| c1ccc(-c2cnc(Nc3cccc(-c4nc5ccccc5[nH]4)c3)nc2)nc1 [Example 44, N-(3-(1H-benzo[d]imidazol-2-yl)phenyl)-5-(pyridin-2-yl)pyrimidin-2-amine] | – | – | – | > 60 | > 60 |
| FC(F)(F)Oc1ccc2nc(-c3cccc(Nc4ccc(-c5cccnn5)cc4)c3)[nH]c2c1 [Example 230, N-(4-(pyridazin-3-yl)phenyl)-3-(6-(trifluoromethoxy)-1H-benzo[d]imidazol-2-yl)aniline] | – | – | > 60 | > 60 | – |
| Clc1ccc2nc(-c3cccc(Nc4ccc(-c5cccnn5)cc4)c3)[nH]c2c1 [Example 226, 3-(6-chloro-1H-benzo[d]imidazol-2-yl)-N-(4-(pyridazin-3-yl)phenyl)aniline] | – | – | – | > 60 | – |
| Fc1cc(Br)c2[nH]c(-c3cccc(Nc4ccc(-c5ccccc5)nn4)c3)nc2c1 [Example 11, N-(3-(7-bromo-5-fluoro-1H-benzo[d]imidazol-2-yl)phenyl)-6-phenylpyridazin-3-amine] | – | – | > 60 | – | 30 to 60 |
| FC(F)(F)c1ccc2nc(-c3cccc(Nc4ccc(-c5ccccc5)cn4)c3)[nH]c2c1 [Example 15, 5-Phenyl-N-{3-[6-(trifluoromethyl)-1H-benzo[d]imidazol-2-yl]phenyl}pyridin-2-amine] | – | – | > 60 | > 60 | > 60 |
| c1cc(Nc2ccc(-c3cncnc3)cc2)cc(-c2nc3ccccc3[nH]2)c1 [Example 30, 3-(1H-benzo[d]imidazol-2-yl)-N-(4-(pyrimidin-5-yl)phenyl)aniline] | – | – | – | 30 to 60 | 30 to 60 |
| c1cnc(-c2ccc(Nc3cccc(-c4nc5ccccc5[nH]4)c3)cc2)nc1 [Example 26, N-[3-(1H-benzo[d]imidazol-2-yl)phenyl]-4-(pyrimidin-2-yl)aniline] | – | – | > 60 | > 60 | > 60 |
| Fc1ccc(-c2ccc(Nc3cccc(-c4nc5ccc(C(F)(F)F)cc5[nH]4)c3)cc2)nn1 [Example 264, N-(4-(6-fluoropyridazin-3-yl)phenyl)-3-(6-(trifluoromethyl)-1H-benzo[d]imidazol-2-yl) aniline] | – | – | – | > 60 | – |
| COC(=O)c1ccc2nc(-c3cccc(Nc4ccc(-c5cccnn5)cc4)c3)[nH]c2c1 [Example 61, methyl 2-(3-((4-(pyridazin-3-yl)phenyl)amino)phenyl)-1H-benzo[d]imidazol-6-carboxylate] | – | – | – | > 60 | > 60 |
| Clc1cc2[nH]c(-c3cccc(Nc4ccc(-c5ccncn5)cc4)c3)nc2cn1 [Example 117, 3-(6-chloro-1H-imidazo[4,5-c]pyridin-2-yl)-N-(4-pyrimidin-4-ylphenyl)aniline] | – | – | > 60 | – | – |
| Fc1ccc2nc(-c3cccc(Nc4ccc(-c5ccccn5)cc4)c3)[nH]c2c1 [Example 92, 3-(6-fluoro-1H-benzo[d]imidazol-2-yl)-N-[4-(2-pyridyl)phenyl]aniline] | – | – | > 60 | > 60 | – |
| Cc1cc2nc(-c3cccc(Nc4ccc(-c5cccnn5)cc4)c3)[nH]c2cc1F [Example 114, 3-(6-fluoro-5-methyl-1H-benzo[d]imidazol-2-yl)-N-(4-pyridazin-3-ylphenyl)aniline] | – | – | > 60 | 30 to 60 | – |
| N#Cc1ccc2nc(-c3cccc(Nc4ccc(-c5cccnn5)cc4)c3)[nH]c2c1 [Example 231, 2-(3-((4-(pyridazin-3-yl)phenyl)amino)phenyl)-1H-benzo[d]imidazole-6-carbonitrile] | – | – | > 60 | – | – |
| FC(F)(F)c1ccc2[nH]c(-c3cccc(Nc4ncc(-c5ccccn5)cn4)c3)nc2n1 [Example 244, 5-(pyridin-2-yl)-N-(3-(5-(trifluoromethyl)-1H-imidazo[4,5-b]pyridin-2-yl)phenyl)pyrimidin-2-amine] | – | – | > 60 | 30 to 60 | – |

Next, values leading:

| % Inhibition 50 nM (compound 50 nM) | % Inhibition 100 nM (compound 100 nM) | inhibition at 1 µM [%] | inhibition at 0.05 µM (compound 50 nM) [%] | inhibition at 0.1 µM (compound 100 nM) [%] | Structure (SMILES) |
| --- | --- | --- | --- | --- | --- |
| – | – | 30 to 60 | – | – | c1ccc(-c2cnc(Nc3cccc(-c4nc5ccccc5[nH]4)c3)nn2)cc1 [Example 271, N-(3-(1H-benzo[d]imidazol-2-yl)phenyl)-6-phenyl-1,2,4-triazin-3-amine] |
| – | – | > 60 | > 60 | – | Fc1cc2nc(-c3cccc(Nc4cnc(-c5ccncn5)cn4)c3)[nH]c2cc1F [Example 297, N-(3-(5,6-difluoro-1H-benzo[d]imidazol-2-yl)phenyl)-5-(pyrimidin-4-yl)pyrazin-2-amine] |
| – | – | > 60 | – | – | Fc1ccccc1-c1ccc(Nc2cccc(-c3nc4ccccc4[nH]3)c2)cc1 [Example 322, N-(3-(1H-benzo[d]imidazol-2-yl)phenyl)-2'-fluoro-[1,1'-biphenyl]-4-amine] |
| – | – | > 60 | – | – | Fc1cccnc1-c1ccc(Nc2cccc(-c3nc4ccc(C(F)(F)F)cc4[nH]3)c2)cc1 [Example 251, N-(4-(3-fluoropyridin-2-yl)phenyl)-3-(6-(trifluoromethyl)-1H-benzo[d]imidazol-2-yl)aniline] |
| – | – | > 60 | 30 to 60 | – | Fc1cc(-c2cccnn2)ccc1Nc1cccc(-c2nc3ccccc3[nH]2)c1 [Example 269, N-(3-(1H-benzo[d]imidazol-2-yl)phenyl)-2-fluoro-4-(pyridazin-3-yl)aniline] |
| – | – | > 60 | > 60 | > 60 | FC(F)(F)c1ccc2nc(-c3cccc(Nc4ncc(-c5ccccc5)cn4)c3)[nH]c2c1 [Example 14, 5-phenyl-N-(3-(6-(trifluoromethyl)-1H-benzo[d]imidazol-2-yl)phenyl)pyrimidin-2-amine] |
| – | – | 30 to 60 | – | – | FC(F)(F)c1ccc2nc(-c3cncc(Nc4ncc(-c5ccccn5)cn4)c3)[nH]c2c1 [Example 307, 5-(pyridin-2-yl)-N-(5-(6-(trifluoromethyl)-1H-benzo[d]imidazol-2-yl)pyridin-3-yl)pyrimidin-2-amine] |
| – | – | > 60 | > 60 | – | FC(F)Oc1ccc2nc(-c3cccc(Nc4ccc(-c5ccccn5)cn4)c3)[nH]c2c1 [Example 284, N-(3-(6-(difluoromethoxy)-1H-benzo[d]imidazol-2-yl)phenyl)-[2,3'-bipyridin]-6'-amine] |
